One may read the inhibition as how much of the control response was suppressed. A high value points to a strong effect. One may read the viability as a read-out of living cells in per cent, often relative to untreated cells. For orientation: IC50 means the concentration at which inhibition is half-maximal. Usually EC50 stands for the concentration at which the effect is half-maximal. Lower therefore signals higher potency in that assay.

The source made the active and inactive calls. The rule behind the calls is not given here.

Chain of Acetylcholinesterase (O42275 whole entry): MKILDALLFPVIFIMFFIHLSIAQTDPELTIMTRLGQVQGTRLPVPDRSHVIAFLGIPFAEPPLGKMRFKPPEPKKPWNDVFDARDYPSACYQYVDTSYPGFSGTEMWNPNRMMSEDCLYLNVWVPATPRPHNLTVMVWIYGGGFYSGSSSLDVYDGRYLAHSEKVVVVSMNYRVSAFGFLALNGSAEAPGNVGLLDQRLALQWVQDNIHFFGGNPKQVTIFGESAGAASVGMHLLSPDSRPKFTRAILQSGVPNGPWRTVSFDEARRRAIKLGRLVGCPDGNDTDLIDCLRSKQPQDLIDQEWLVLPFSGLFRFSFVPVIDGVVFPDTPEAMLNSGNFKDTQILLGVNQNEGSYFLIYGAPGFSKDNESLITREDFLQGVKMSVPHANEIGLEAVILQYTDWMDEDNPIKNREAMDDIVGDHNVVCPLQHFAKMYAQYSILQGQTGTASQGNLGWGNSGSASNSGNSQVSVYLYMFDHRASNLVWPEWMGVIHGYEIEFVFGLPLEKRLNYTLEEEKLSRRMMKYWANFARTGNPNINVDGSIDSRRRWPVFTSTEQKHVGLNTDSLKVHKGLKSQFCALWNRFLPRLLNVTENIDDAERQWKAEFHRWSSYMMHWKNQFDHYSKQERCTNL

For one data set, the system named is SH-SY5Y. Description: Neuroprotective activity in human SH-SY5Y cells assessed as reversal of 20 nM okadaic acid-induced cell death at 1 to 10 uM after 24 hrs by XTT assay. It counts as functional, cell-based.
Conditions: not given
Background: Formazan colour is commonly taken as a measure of viable cells.
In the case of `CCOC(=O)C1=C(C)Oc2nc3c(c(N)c2C1c1cc2cc(OC)ccc2nc1Cl)CCCC3` (centres undefined), the outcome was inactive.

In the case of `CCOC(=O)C1=C(C)Oc2nc3c(c(N)c2C1c1cc2ccc(OC)cc2nc1Cl)CCC3` (centres undefined), the result was Active.

For the compound `CCOC(=O)C1=C(C)Oc2nc3c(c(N)c2C1c1cc2cc(C)ccc2nc1Cl)CCCC3` (centres undefined), the result was Active.

The subject of another data set is SH-SY5Y. Description: Neuroprotective activity in human SH-SY5Y cells assessed as reversal of 15 nM okadaic acid-induced cell death at 1 to 10 uM after 24 hrs by XTT assay. It counts as functional, cell-based.
Conditions: not given
As for `CCOC(=O)C1=C(C)Oc2nc3c(c(N)c2C1c1cc2cc(C)ccc2nc1Cl)CCCC3` (centres undefined), the result was Active.

Another data set deals with Cholinesterase (Equus caballus) (UniProt P81908). As to the kind of experiment: Inhibition of horse serum BuChE using […] as substrate at 50 uM preincubated for 15 mins followed by substrate addition by Ellman's method relative to control.
Chain of Cholinesterase (Equus caballus) (P81908 whole entry): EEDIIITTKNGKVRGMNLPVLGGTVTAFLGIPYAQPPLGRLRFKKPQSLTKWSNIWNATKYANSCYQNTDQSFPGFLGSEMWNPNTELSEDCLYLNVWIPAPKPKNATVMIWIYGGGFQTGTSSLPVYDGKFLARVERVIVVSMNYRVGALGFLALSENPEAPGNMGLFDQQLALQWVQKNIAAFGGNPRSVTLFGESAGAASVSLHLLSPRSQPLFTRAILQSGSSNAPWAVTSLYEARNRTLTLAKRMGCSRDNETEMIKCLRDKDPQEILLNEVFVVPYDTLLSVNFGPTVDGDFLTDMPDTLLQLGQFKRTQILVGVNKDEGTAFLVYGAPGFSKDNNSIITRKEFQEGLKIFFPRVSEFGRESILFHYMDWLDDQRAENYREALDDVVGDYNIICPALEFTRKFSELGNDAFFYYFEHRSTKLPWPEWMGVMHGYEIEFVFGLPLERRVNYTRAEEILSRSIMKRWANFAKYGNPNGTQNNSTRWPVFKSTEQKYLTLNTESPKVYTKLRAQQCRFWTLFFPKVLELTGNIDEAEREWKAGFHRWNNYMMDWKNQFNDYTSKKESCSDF
Conditions: not given
Consider `CCOC(=O)C1=C(C)Oc2nc3c(c(N)c2C1c1cc2cc(C)ccc2nc1Cl)CCCC3` (centres undefined), for which the inhibition is 50%.

Tested on in a further data set: not listed separately
Description: in vitro. The settings on record: human, SH-SY5Y cells.
Description: Neurotoxicity in human SH-SY5Y cells assessed as cell viability at 5 uM after 24 hrs by XTT assay relative to control
Regarding `CCOC(=O)C1=C(C)Oc2nc3c(c(N)c2C1c1cc2cc(OC)ccc2nc1Cl)CCCC3` (centres undefined), the viability at 24 h, 5 µM stood at 135%.

With `CCOC(=O)C1=C(C)Oc2nc3c(c(N)c2C1c1cc2ccc(OC)cc2nc1Cl)CCC3` (centres undefined), the viability at 24 h, 5 µM stood at 119%.

Consider `CCOC(=O)C1=C(C)Oc2nc3c(c(N)c2C1c1cc2cc(C)ccc2nc1Cl)CCCC3` (centres undefined), for which the viability at 24 h, 5 µM stood at 101%.

Tested on in another data set: not listed separately
Description: in vitro. The settings on record: human, SH-SY5Y cells. The source holds these as a separate data set.
Description: Neurotoxicity in human SH-SY5Y cells assessed as cell viability at 0.1 uM after 24 hrs by XTT assay relative to control
Turning to `CCOC(=O)C1=C(C)Oc2nc3c(c(N)c2C1c1cc2cc(OC)ccc2nc1Cl)CCCC3` (centres undefined), the viability at 24 h, 0.1 µM is 128%.

Take `CCOC(=O)C1=C(C)Oc2nc3c(c(N)c2C1c1cc2ccc(OC)cc2nc1Cl)CCC3` (centres undefined): the viability at 24 h, 0.1 µM came to 115%.

For `CCOC(=O)C1=C(C)Oc2nc3c(c(N)c2C1c1cc2cc(C)ccc2nc1Cl)CCCC3` (centres undefined), the viability at 24 h, 0.1 µM stood at 90.1%.

Tested on in another data set: not listed separately
Description: in vitro. The settings on record: human, SH-SY5Y cells. The source holds these as a separate data set.
Description: Neurotoxicity in human SH-SY5Y cells assessed as cell viability at 10 uM after 24 hrs by XTT assay relative to control
As for `CCOC(=O)C1=C(C)Oc2nc3c(c(N)c2C1c1cc2cc(OC)ccc2nc1Cl)CCCC3` (centres undefined), the viability at 24 h, 10 µM is 116%.

For `CCOC(=O)C1=C(C)Oc2nc3c(c(N)c2C1c1cc2ccc(OC)cc2nc1Cl)CCC3` (centres undefined), the viability at 24 h, 10 µM came out at 116%.

For the compound `CCOC(=O)C1=C(C)Oc2nc3c(c(N)c2C1c1cc2cc(C)ccc2nc1Cl)CCCC3` (centres undefined), the viability at 24 h, 10 µM amounted to 97.2%.

Tested on in the next data set: not listed separately
Description: in vitro. The settings on record: human, SH-SY5Y cells. The source holds these as a separate data set.
Description: Neurotoxicity in human SH-SY5Y cells assessed as cell viability at 1 uM after 24 hrs by XTT assay relative to control
Take `CCOC(=O)C1=C(C)Oc2nc3c(c(N)c2C1c1cc2cc(OC)ccc2nc1Cl)CCCC3` (centres undefined): the viability at 24 h, 1 µM turned out to be 110%.

Consider `CCOC(=O)C1=C(C)Oc2nc3c(c(N)c2C1c1cc2ccc(OC)cc2nc1Cl)CCC3` (centres undefined), for which the viability at 24 h, 1 µM stood at 135%.

For the compound `CCOC(=O)C1=C(C)Oc2nc3c(c(N)c2C1c1cc2cc(C)ccc2nc1Cl)CCCC3` (centres undefined), the viability at 24 h, 1 µM came to 82.9%.

The next data set concerns the target Acetylcholinesterase (Electrophorus electricus, UniProt O42275).
Experiment: not given
Conditions: not given
`CCOC(=O)C1=C(C)Oc2nc3c(c(N)c2C1c1cc2cc(OC)ccc2nc1Cl)CCCC3` (centres undefined) displayed an IC50 of 2230 nM.

Take `CCOC(=O)C1=C(C)Oc2nc3c(c(N)c2C1c1cc2ccc(OC)cc2nc1Cl)CCC3` (centres undefined): the IC50 amounted to 4020 nM.

The compound `CCOC(=O)C1=C(C)Oc2nc3c(c(N)c2C1c1cc2cc(C)ccc2nc1Cl)CCCC3` (centres undefined) had a 50% inhibitory concentration (IC50) of 540 nM.

In the next data set the target is Acetylcholinesterase (Electrophorus electricus) (UniProt O42275). Description: Inhibition of electric eel AChE-induced amyloid beta (1 to 40) aggregation at 25 uM measured every 24 hrs for 7 days by Thioflavin T based fluorometric assay relative to control.
Chain of Acetylcholinesterase (Electrophorus electricus) (O42275 24-633 limits assumed): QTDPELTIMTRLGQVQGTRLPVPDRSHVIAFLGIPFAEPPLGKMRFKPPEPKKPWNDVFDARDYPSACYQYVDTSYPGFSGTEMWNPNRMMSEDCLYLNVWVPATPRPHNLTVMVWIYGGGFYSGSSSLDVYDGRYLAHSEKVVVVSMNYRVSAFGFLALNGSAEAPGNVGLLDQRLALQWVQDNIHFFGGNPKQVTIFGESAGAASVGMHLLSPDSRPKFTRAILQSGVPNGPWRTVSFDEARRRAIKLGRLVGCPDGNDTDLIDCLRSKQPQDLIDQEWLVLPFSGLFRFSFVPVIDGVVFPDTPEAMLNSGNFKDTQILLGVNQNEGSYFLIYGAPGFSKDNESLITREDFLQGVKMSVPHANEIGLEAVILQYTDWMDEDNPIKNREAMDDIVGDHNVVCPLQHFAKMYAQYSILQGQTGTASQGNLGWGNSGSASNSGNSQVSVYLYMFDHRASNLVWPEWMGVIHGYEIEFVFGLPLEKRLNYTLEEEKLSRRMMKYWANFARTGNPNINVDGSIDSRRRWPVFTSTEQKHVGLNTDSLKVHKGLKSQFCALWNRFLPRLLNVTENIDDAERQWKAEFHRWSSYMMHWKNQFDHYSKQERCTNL
Conditions: not given
Consider `CCOC(=O)C1=C(C)Oc2nc3c(c(N)c2C1c1cc2ccc(OC)cc2nc1Cl)CCC3` (centres undefined), for which the inhibition was found to be 28.3%.

Tested on in a further data set: not listed separately
Description: in vitro. The settings on record: human, HepG2 cells.
Description: Hepatotoxicity in human HepG2 cells assessed as reduction in cell viability by MTT assay
Compound `CCOC(=O)C1=C(C)Oc2nc3c(c(N)c2C1c1cc2cc(OC)ccc2nc1Cl)CCCC3` (centres undefined) returned an EC50 of 73000 nM.

For `CCOC(=O)C1=C(C)Oc2nc3c(c(N)c2C1c1cc2ccc(OC)cc2nc1Cl)CCC3` (centres undefined), the EC50 came to 931000 nM.

`CCOC(=O)C1=C(C)Oc2nc3c(c(N)c2C1c1cc2cc(C)ccc2nc1Cl)CCCC3` (centres undefined) returned an EC50 of 128000 nM.

The test system of another data set is SH-SY5Y. Description: cells. The settings on record: Homo sapiens, 24 h.
Description: Neuroprotective activity against rotenone/oligomycin-A-induced cell death in human SH-SY5Y cells assessed as increase in cell viability after 24 hrs by XTT assay
Turning to `CCOC(=O)C1=C(C)Oc2nc3c(c(N)c2C1c1cc2cc(OC)ccc2nc1Cl)CCCC3` (centres undefined), the EC50 came to 340 nM.

On to `CCOC(=O)C1=C(C)Oc2nc3c(c(N)c2C1c1cc2ccc(OC)cc2nc1Cl)CCC3` (centres undefined), for which the half-maximal effective concentration (EC50) was 2400 nM.

The compound `CCOC(=O)C1=C(C)Oc2nc3c(c(N)c2C1c1cc2cc(C)ccc2nc1Cl)CCCC3` (centres undefined) registered a concentration giving a half-maximal response (EC50) of 2430 nM.

Tested on in a further data set: not listed separately
As to the kind of experiment: in vitro. The settings on record: human, SH-SY5Y cells. The source holds these as a separate data set.
Description: Neurotoxicity in human SH-SY5Y cells assessed as cell viability at 25 uM after 24 hrs by XTT assay relative to control
For `CCOC(=O)C1=C(C)Oc2nc3c(c(N)c2C1c1cc2cc(OC)ccc2nc1Cl)CCCC3` (centres undefined), the viability at 24 h, 25 µM amounted to 125%.

For the compound `CCOC(=O)C1=C(C)Oc2nc3c(c(N)c2C1c1cc2ccc(OC)cc2nc1Cl)CCC3` (centres undefined), the viability at 24 h, 25 µM stood at 106%.

With `CCOC(=O)C1=C(C)Oc2nc3c(c(N)c2C1c1cc2cc(C)ccc2nc1Cl)CCCC3` (centres undefined), the viability at 24 h, 25 µM worked out at 112%.

A further data set deals with SH-SY5Y. Description: Neuroprotective activity against amyloid beta (1 to 40)-induced cell death in human SH-SY5Y cells assessed as increase in cell viability at 10 uM after 48 hrs by XTT assay. In kind it is functional, cell-based.
Conditions: not given
`CCOC(=O)C1=C(C)Oc2nc3c(c(N)c2C1c1cc2cc(C)ccc2nc1Cl)CCCC3` (centres undefined): the result was Active.

Tested on in another data set: not listed separately
As to the kind of experiment: in vitro. The settings on record: human, SH-SY5Y cells. This is another data set of the same source.
Description: Neurotoxicity in human SH-SY5Y cells assessed as cell viability at 50 uM after 24 hrs by XTT assay relative to control
Turning to `CCOC(=O)C1=C(C)Oc2nc3c(c(N)c2C1c1cc2cc(OC)ccc2nc1Cl)CCCC3` (centres undefined), the viability at 24 h, 50 µM worked out at 68.5%.

In the case of `CCOC(=O)C1=C(C)Oc2nc3c(c(N)c2C1c1cc2ccc(OC)cc2nc1Cl)CCC3` (centres undefined), the viability at 24 h, 50 µM turned out to be 112%.

For the compound `CCOC(=O)C1=C(C)Oc2nc3c(c(N)c2C1c1cc2cc(C)ccc2nc1Cl)CCCC3` (centres undefined), the viability at 24 h, 50 µM was found to be 80.2%.
